According to patent US5494895A, “Scorpion peptide margatoxin with immunosuppressant activity” (Merck & Co., Inc., priority 1993, dated 1996):
Peptide text beside a SMILES is read from it.

How the values were obtained:
Kv 1 (rat Kv 1.5) = molecular target: T1, Kv 1 (rat Kv 1.5) (Rattus norvegicus, UniProt P19024); assay: Two-electrode voltage clamp of Xenopus oocytes expressing Kv 1 (Kv 1.5); format: cell-based; settings: 200 nM MgTX
T1 construct: expressed in transfected cells; host or cells: Xenopus oocytes injected with RNA transcribed in vitro from the cDNA clone
Protocol: (§1) Ionic currents were also recorded from Xenopus oocytes that had been injected with RNA transcribed in vitro from one or another of the following K^+ channel cDNA clones. Kv 1 (rat Kv 1.5), rat or human Kv 3 (rat Kv 1.3; human Kv 1.3), Kv 4 (rat Kv 3.1 ), rat ISK, Kv 2 (rat Kv 1.6) or Drosophila Shaker-H4. The names of the clones are listed as originally published, with the appropriate parenthetical designation according to the unified gene nomenclature proposed by Chandy. Shaker-H4 is a splice variant from the original Drosophila Shaker K^+ channel gene. Kv 1.3 is the ChTX-sensitive delayed rectifier current found in rat and human T lymphocytes (data from rat and human clones were indistinguishable and were combined) and it is a member of the Shaker family. Kv 1.5 is a channel cloned from rat (Swanson et al., Neuron, 4, 929, 1990) and is another member of the Shaker family. The Kv 1.5 transcript has been detected in pancreatic β cells as described in Philipson, et al., Proc. Natl. Acad. Sci. U.S.A. 88, 53, 1991. […] The ISK transcript has been detected in lymphocytes (Attali et al., J. Biol. Chem,. 267, 8650, 1992), but no evidence of the IKs current has been found in those cells.
(§2) Methods for oocyte isolation and micro-injection were previously described in Goldin, Meth. […] Currents expressed in oocytes were measured using a DAGAN model CA-1 two-electrode voltage clamp. […]

[1] = molecular target: T2, Kv 1.3 in plasma membranes from Jurkat cells (Homo sapiens, UniProt P22001); assay: [125I]ChTX binding to plasma membranes from Jurkat cells
T2 construct: plasma membranes prepared from Jurkat cells, a human T-cell leukemia line; endogenous in cells; host or cells: Jurkat cells (plasma membranes)
Protocol: In addition to being tested for competition for [^125 I]ChTX binding to rat brain and bovine aortic smooth muscle, MgTX was evaluated for its effects on [^125 I]ChTX binding to human T lymphocytes and to plasma membranes prepared from Jurkat cells, a human T-cell leukemia line. MgTX competition for [^125 I]ChTX binding to human T cells was performed as described by Lin, et al., J. Exp. Med. 177, 637-645, 1993. Binding experiments using monocyte-depleted, E-rosetted human T cells were carried out in isotonic sucrose with 5 mM KCl, 5 mM NaCl, 6 mM glucose and 10 mM HEPES, pH 8.0 until equilibrium was achieved. The procedure for binding to plasma membranes from Jurkat Cells is similar except that the binding solution was 3 mM KCl, 7 mM NaCl, 10 mM HEPES, pH 8.0. Free ligand was removed from bound by filtration through Whatman GF/C glass fiber filters (pretreated with 0.5% polyethylenimine). […] Hill coefficients were 2 in both cases.

ISK = molecular target: T3, ISK (Rattus norvegicus, UniProt P15383); assay: Two-electrode voltage clamp of Xenopus oocytes expressing ISK; format: cell-based; settings: 200 nM MgTX
T3 construct: expressed in transfected cells; host or cells: Xenopus oocytes injected with RNA transcribed in vitro from the cDNA clone
Protocol: as §1, §2

Kv 3.1 = molecular target: T4, Kv 3.1 (Rattus norvegicus, UniProt P25122); assay: Two-electrode voltage clamp of Xenopus oocytes expressing Kv 4 (Kv 3.1); format: cell-based; settings: 200 nM MgTX
T4 construct: expressed in transfected cells; host or cells: Xenopus oocytes injected with RNA transcribed in vitro from the cDNA clone
T4 sequence (P25122 1-585): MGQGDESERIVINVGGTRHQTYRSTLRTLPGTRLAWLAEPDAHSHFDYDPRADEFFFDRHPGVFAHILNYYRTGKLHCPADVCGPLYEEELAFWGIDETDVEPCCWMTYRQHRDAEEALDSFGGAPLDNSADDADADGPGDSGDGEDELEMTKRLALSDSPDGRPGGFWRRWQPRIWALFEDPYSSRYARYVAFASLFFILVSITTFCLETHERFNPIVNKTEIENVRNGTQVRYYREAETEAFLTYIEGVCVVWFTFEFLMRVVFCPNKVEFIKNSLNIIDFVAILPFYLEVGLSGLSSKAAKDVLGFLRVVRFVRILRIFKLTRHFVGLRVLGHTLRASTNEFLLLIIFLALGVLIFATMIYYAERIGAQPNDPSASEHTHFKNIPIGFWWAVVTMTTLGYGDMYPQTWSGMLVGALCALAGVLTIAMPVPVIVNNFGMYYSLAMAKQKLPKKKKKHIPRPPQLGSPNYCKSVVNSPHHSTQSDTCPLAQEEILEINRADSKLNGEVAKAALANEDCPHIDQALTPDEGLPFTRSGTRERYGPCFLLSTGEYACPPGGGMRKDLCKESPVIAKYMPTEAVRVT
Protocol: as §1, §2

T2 sequence (P22001 whole entry): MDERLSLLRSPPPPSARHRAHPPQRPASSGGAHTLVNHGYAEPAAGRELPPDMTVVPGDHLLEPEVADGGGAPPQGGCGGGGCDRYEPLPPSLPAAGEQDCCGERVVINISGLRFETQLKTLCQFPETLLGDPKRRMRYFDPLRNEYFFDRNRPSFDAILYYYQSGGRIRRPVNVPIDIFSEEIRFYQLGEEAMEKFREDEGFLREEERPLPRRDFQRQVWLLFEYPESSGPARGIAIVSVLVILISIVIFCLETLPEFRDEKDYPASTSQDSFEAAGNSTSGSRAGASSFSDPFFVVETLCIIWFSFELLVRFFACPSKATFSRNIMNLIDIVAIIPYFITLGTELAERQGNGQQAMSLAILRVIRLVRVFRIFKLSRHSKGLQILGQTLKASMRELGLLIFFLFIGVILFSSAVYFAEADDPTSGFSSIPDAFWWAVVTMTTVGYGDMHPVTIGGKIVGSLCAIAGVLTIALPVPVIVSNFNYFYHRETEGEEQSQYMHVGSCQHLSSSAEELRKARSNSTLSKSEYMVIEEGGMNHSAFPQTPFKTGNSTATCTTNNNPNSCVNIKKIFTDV
T3 sequence (P15383 whole entry): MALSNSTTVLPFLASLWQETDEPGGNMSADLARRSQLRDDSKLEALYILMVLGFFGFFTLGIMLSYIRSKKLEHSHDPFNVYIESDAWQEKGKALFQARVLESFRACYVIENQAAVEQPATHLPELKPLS
T3 sequence (P70057 whole entry partner): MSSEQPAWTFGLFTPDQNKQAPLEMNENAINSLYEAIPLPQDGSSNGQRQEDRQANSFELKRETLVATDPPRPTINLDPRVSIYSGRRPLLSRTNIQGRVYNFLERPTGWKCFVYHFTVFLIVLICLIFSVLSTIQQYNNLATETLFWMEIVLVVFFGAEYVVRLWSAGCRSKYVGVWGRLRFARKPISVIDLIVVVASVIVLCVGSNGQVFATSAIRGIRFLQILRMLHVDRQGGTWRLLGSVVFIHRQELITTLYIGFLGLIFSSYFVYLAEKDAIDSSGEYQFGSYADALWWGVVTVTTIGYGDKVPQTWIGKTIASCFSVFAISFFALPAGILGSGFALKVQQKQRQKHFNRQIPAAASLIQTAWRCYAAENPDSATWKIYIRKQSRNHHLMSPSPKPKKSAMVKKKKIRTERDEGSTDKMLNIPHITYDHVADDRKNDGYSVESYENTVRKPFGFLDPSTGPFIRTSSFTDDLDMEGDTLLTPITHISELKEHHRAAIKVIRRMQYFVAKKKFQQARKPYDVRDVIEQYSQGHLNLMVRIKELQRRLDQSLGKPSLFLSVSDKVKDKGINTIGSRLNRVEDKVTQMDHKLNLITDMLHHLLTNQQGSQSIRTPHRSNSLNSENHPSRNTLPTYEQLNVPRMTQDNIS
T1 sequence (P19024 whole entry): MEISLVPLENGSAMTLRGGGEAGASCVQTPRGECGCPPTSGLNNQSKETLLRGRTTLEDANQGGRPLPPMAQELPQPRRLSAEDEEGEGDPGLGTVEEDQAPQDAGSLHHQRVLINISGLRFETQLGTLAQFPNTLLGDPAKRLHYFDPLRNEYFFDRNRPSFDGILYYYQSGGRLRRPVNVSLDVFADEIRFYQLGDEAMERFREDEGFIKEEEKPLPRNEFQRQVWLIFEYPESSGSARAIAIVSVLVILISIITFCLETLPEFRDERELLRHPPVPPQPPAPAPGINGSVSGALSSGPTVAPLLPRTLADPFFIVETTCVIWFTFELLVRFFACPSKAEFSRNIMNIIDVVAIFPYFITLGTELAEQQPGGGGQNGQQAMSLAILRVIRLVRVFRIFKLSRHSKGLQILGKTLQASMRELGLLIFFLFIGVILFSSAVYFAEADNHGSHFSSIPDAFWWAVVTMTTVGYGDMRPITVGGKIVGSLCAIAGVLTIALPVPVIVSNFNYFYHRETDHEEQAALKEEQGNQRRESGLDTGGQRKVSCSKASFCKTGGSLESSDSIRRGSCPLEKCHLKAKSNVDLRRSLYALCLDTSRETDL

## CC[C@H](C)[C@H](NC(=O)[C@@H](N)[C@@H](C)O)C(=O)N[C@H](C(=O)N[C@@H](CC(N)=O)C(=O)N[C@H](C(=O)N[C@@H](CCCCN)C(=O)N[C@H]1CSSC[C@@H]2NC(=O)[C@H](CCCCN)NC(=O)[C@H](C)NC(=O)CNC(=O)[C@H](C)NC(=O)[C@H](CO)NC(=O)[C@H](CCC(N)=O)NC(=O)CNC(=O)[C@H](Cc3ccccc3)NC(=O)[C@H](CCC(N)=O)NC(=O)[C@H](C)NC(=O)[C@H](CCCCN)NC(=O)[C@@H]3CSSC[C@@H](C(=O)N[C@@H](Cc4ccc(O)cc4)C(=O)N4CCC[C@H]4C(=O)N[C@@H](Cc4c[nH]cn4)C(=O)O)NC(=O)[C@H](CCCCN)NC(=O)[C@H](CSSC[C@H](NC(=O)[C@H](CCC(N)=O)NC(=O)[C@H](CCCCN)NC(=O)[C@@H]4CCCN4C(=O)[C@H](CO)NC(=O)[C@H]([C@@H](C)O)NC1=O)C(=O)N[C@@H](CC(C)C)C(=O)N1CCC[C@H]1C(=O)N1CCC[C@H]1C(=O)N3)NC(=O)[C@H](CCCCN)NC(=O)CNC(=O)[C@H](CC(N)=O)NC(=O)[C@H](CCSC)NC2=O)C(C)C)[C@@H](C)CC [MgTX, Margatoxin] (HELM PEPTIDE1{T.I.I.N.V.K.C.T.S.P.K.Q.C.L.P.P.C.K.A.Q.F.G.Q.S.A.G.A.K.C.M.N.G.K.C.K.C.Y.P.H}$PEPTIDE1,PEPTIDE1,7:R3-29:R3|PEPTIDE1,PEPTIDE1,13:R3-34:R3|PEPTIDE1,PEPTIDE1,17:R3-36:R3$$$V2.0; N-terminus and C-terminus assumed; bridges inferred)
Kv 1 (rat Kv 1.5)
  sensitivity of cloned channel Kv 5 to block: completely insensitive
[1]
  Hill coefficient: 2
[1]; pH 8.0, read-out: IC50 for inhibition of [125I]ChTX binding
  IC50: 2.7 pM
ISK
  sensitivity of cloned channel ISK to block: completely insensitive
Kv 3.1
  sensitivity of cloned channel Kv 3.1 to block: completely insensitive
